31 molecules from patent publication US9284321B2, “Piperazino[1,2-a]indol-1-ones and [1,4]diazepino[1,2-a]indol-1-one” (Hoffmann-La Roche Inc., priority 2012, dated 2016) can be followed below.

The term melting point denotes the temperature of the solid-liquid transition.

The test system of series [1] is human embryonic stem cell derived neural stem cells (NSCs). In words: Neural Stem Cell Proliferation Assay (neurogenesis assay, ATP levels by CellTiterGlo). Format: cell-based. The following applies: 96 h, compound concentration at which 150% activity of control (100%) is reached, NSC proliferation by ATP level after 4 days incubation, dose response 8 μM to 8 nM. The gist of the method:
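Read-out is CellTiterGlo ATP luminescence after 4-day culture (37 °C, 5% CO2) of dual-SMAD-derived human ESC NSCs, dosed 4 h post-seeding at 8 μM to 8 nM (11 points, 2-fold). EC150 marks the concentration reaching 150% of the media-only control (0.25% DMSO).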

Regarding `Cc1c2n(c3c(-c4ccc(F)nc4)cc(F)cc13)CCNC2=O` [Example 141, 8-Fluoro-6-(6-fluoro-pyridin-3-yl)-10-methyl-3,4-dihydro-2H-pyrazino[1,2-a]indol-1-one], the melting point came to 247 °C. Besides, the EC (150% of control) in series [1] amounted to 0.13 µM.

In the case of `COc1ncc(-c2cc(Cl)cc3c(C)c4n(c23)CCNC4=O)cn1` [Example 142, 8-Chloro-6-(2-methoxy-pyrimidin-5-yl)-10-methyl-3,4-dihydro-2H-pyrazino[1,2-a]indol-1-one], the melting point was found to be 270.5 °C. The EC (150% of control) in series [1] came to 0.039 µM.

As to `Cc1c2n(c3c(-c4cnc(N)nc4)cc(Cl)cc13)CCNC2=O` [Example 143, 6-(2-Amino-pyrimidin-5-yl)-8-chloro-10-methyl-3,4-dihydro-2H-pyrazino[1,2-a]indol-1-one], the melting point stood at 316 °C. This molecule gave an EC (150% of control) in series [1] of 0.32 µM.

Molecule `Cc1c2n(c3c(-c4ccc(N(C)C)cc4)cc(F)cc13)CCNC2=O` [Example 145, 6-(4-Dimethylamino-phenyl)-8-fluoro-10-methyl-3,4-dihydro-2H-pyrazino[1,2-a]indol-1-one] showed a melting point of 256 °C. Moreover, the EC (150% of control) in series [1] turned out to be 0.017 µM.

For `COc1ccc(-c2cc(F)cc3c(C)c4n(c23)CCNC4=O)cn1` [Example 146, 8-Fluoro-6-(6-methoxy-pyridin-3-yl)-10-methyl-3,4-dihydro-2H-pyrazino[1,2-a]indol-1-one], the melting point amounted to 226 °C. For the same molecule, in series [1], the EC (150% of control) worked out at 0.02 µM.

Consider `Cc1ccc(-c2cc(F)cc3c(C)c4n(c23)CCNC4=O)cc1F` [Example 147, 8-Fluoro-6-(3-fluoro-4-methyl-phenyl)-10-methyl-3,4-dihydro-2H-pyrazino[1,2-a]indol-1-one], for which the melting point came to 206 °C. Also, the EC (150% of control) in series [1] is 0.039 µM.

The molecule `Cc1cc(-c2cc(F)cc3c(C)c4n(c23)CCNC4=O)ccc1F` [Example 148, 8-Fluoro-6-(4-fluoro-3-methyl-phenyl)-10-methyl-3,4-dihydro-2H-pyrazino[1,2-a]indol-1-one] came in with a melting point of 236 °C. This molecule displayed an EC (150% of control) in series [1] of 0.078 µM.

For the molecule `Cc1c2n(c3c(-c4ccc(OC(F)(F)F)cc4)cc(F)cc13)CCNC2=O` [Example 149, 8-Fluoro-10-methyl-6-(4-trifluoromethoxy-phenyl)-3,4-dihydro-2H-pyrazino[1,2-a]indol-1-one], the melting point was found to be 162 °C. Besides, the EC (150% of control) in series [1] is 0.016 µM.

As for `Cc1c2n(c3c(-c4ccc(Cl)c(C(F)(F)F)c4)cc(F)cc13)CCNC2=O` [Example 150, 6-(4-Chloro-3-trifluoromethyl-phenyl)-8-fluoro-10-methyl-3,4-dihydro-2H-pyrazino[1,2-a]indol-1-one], the melting point came to 240 °C. In series [1], this molecule displayed an EC (150% of control) of 0.61 µM.

In turn, `Cc1c2n(c3c(-c4ccc(F)c(F)c4F)cc(F)cc13)CCNC2=O` [Example 151, 8-Fluoro-10-methyl-6-(2,3,4-trifluoro-phenyl)-3,4-dihydro-2H-pyrazino[1,2-a]indol-1-one] returned a melting point of 130 °C. In series [1], this molecule showed an EC (150% of control) of 0.035 µM.

As to `Cc1c2n(c3c(-c4cccnc4)cc(F)cc13)CCNC2=O` [Example 152, 8-Fluoro-10-methyl-6-pyridin-3-yl-3,4-dihydro-2H-pyrazino[1,2-a]indol-1-one], the melting point came to 239 °C. The EC (150% of control) in series [1] is 0.13 µM.

In turn, `Cc1c2n(c3c(-c4ccc(F)c(F)c4F)cc(Cl)cc13)CCNC2=O` [Example 153, 8-Chloro-10-methyl-6-(2,3,4-trifluoro-phenyl)-3,4-dihydro-2H-pyrazino[1,2-a]indol-1-one] returned a melting point of 205.5 °C. Moreover, the EC (150% of control) in series [1] was found to be 0.029 µM.

Molecule `Cc1c2n(c3c(-c4ccc(N(C)C)nc4)cc(Cl)cc13)CCNC2=O` [Example 154, 8-Chloro-6-(6-dimethylamino-pyridin-3-yl)-10-methyl-3,4-dihydro-2H-pyrazino[1,2-a]indol-1-one] gave a melting point of 248 °C. For the same molecule, the EC (150% of control) in series [1] came to 0.022 µM.

In turn, `Cc1c2n(c3c(-c4cncnc4)cc(F)cc13)CCNC2=O` [Example 155, 8-Fluoro-10-methyl-6-pyrimidin-5-yl-3,4-dihydro-2H-pyrazino[1,2-a]indol-1-one] had a melting point of 289 °C. Further, in series [1], the EC (150% of control) was 0.57 µM.

Molecule `COc1ncc(-c2cc(F)cc3c(C)c4n(c23)CCNC4=O)cn1` [Example 156, 8-Fluoro-6-(2-methoxy-pyrimidin-5-yl)-10-methyl-3,4-dihydro-2H-pyrazino[1,2-a]indol-1-one] showed a melting point of 271 °C. For the same molecule, in series [1], the EC (150% of control) was 0.11 µM.

Regarding `Cc1c2n(c3c(-c4cnc(N)nc4)cc(F)cc13)CCNC2=O` [Example 157, 6-(2-Amino-pyrimidin-5-yl)-8-fluoro-10-methyl-3,4-dihydro-2H-pyrazino[1,2-a]indol-1-one], the melting point came out at 310 °C. In addition, the EC (150% of control) in series [1] was determined as 0.19 µM.

For the molecule `Cc1c2n(c3c(-c4ccc(N(C)C)nc4)cc(F)cc13)CCNC2=O` [Example 158, 6-(6-Dimethylamino-pyridin-3-yl)-8-fluoro-10-methyl-3,4-dihydro-2H-pyrazino[1,2-a]indol-1-one], the melting point is 259 °C. For the same molecule, the EC (150% of control) in series [1] amounted to 0.012 µM.

`Cc1c2n(c3c(-c4cc(F)c(F)c(F)c4)cc(F)cc13)CCNC2=O` [Example 159, 8-Fluoro-10-methyl-6-(3,4,5-trifluoro-phenyl)-3,4-dihydro-2H-pyrazino[1,2-a]indol-1-one] displayed a melting point of 250 °C. The EC (150% of control) in series [1] turned out to be 0.22 µM.

Regarding `Cc1c2n(c3c(-c4ccc(N)nc4)cc(F)cc13)CCNC2=O` [Example 160, 6-(6-Amino-pyridin-3-yl)-8-fluoro-10-methyl-3,4-dihydro-2H-pyrazino[1,2-a]indol-1-one], the melting point was 254 °C. Besides, in series [1], the EC (150% of control) was determined as 0.18 µM.

`Cc1c2n(c3c(-c4ccc(N)nc4)cc(Cl)cc13)CCNC2=O` [Example 161, 6-(6-Amino-pyridin-3-yl)-8-chloro-10-methyl-3,4-dihydro-2H-pyrazino[1,2-a]indol-1-one] came in with a melting point of 250 °C. The same molecule returned an EC (150% of control) in series [1] of 0.27 µM.

Take `Cc1c2n(c3c(-c4ccc(F)cc4)cc(C#N)cc13)CCNC2=O` [Example 162, 6-(4-Fluoro-phenyl)-10-methyl-1-oxo-1,2,3,4-tetrahydro-pyrazino[1,2-a]indole-8-carbonitrile]: the melting point was 292 °C. The molecule also registered an EC (150% of control) in series [1] of 0.021 µM.

`Cc1c2n(c3c(-c4ccc(Cl)cc4)cc(C#N)cc13)CCNC2=O` [Example 163, 6-(4-Chloro-phenyl)-10-methyl-1-oxo-1,2,3,4-tetrahydro-pyrazino[1,2-a]indole-8-carbonitrile] gave a melting point of 298 °C. In series [1], this molecule displayed an EC (150% of control) of 0.013 µM.

`Cc1c2n(c3c(-c4ccc(F)c(F)c4)cc(C#N)cc13)CCNC2=O` [Example 164, 6-(3,4-Difluoro-phenyl)-10-methyl-1-oxo-1,2,3,4-tetrahydro-pyrazino[1,2-a]indole-8-carbonitrile] displayed a melting point of 243 °C. In series [1], this molecule showed an EC (150% of control) of 0.045 µM.

As to `Cc1c2n(c3c(-c4ccc(C(F)(F)F)cc4)cc(C#N)cc13)CCNC2=O` [Example 165, 10-Methyl-1-oxo-6-(4-trifluoromethyl-phenyl)-1,2,3,4-tetrahydro-pyrazino[1,2-a]indole-8-carbonitrile], the melting point was 282 °C. For the same molecule, in series [1], the EC (150% of control) was 0.018 µM.

The molecule `Cc1c2n(c3c(-c4ccc(C#N)cc4)cc(C#N)cc13)CCNC2=O` [Example 166, 6-(4-Cyano-phenyl)-10-methyl-1-oxo-1,2,3,4-tetrahydro-pyrazino[1,2-a]indole-8-carbonitrile] had a melting point of 323 °C. Further, in series [1], the EC (150% of control) stood at 0.028 µM.

`Cc1c2n(c3c(-c4ccc(Cl)cc4Cl)cc(C#N)cc13)CCNC2=O` [Example 167, 6-(2,4-Dichloro-phenyl)-10-methyl-1-oxo-1,2,3,4-tetrahydro-pyrazino[1,2-a]indole-8-carbonitrile] yielded a melting point of 274 °C. Besides, in series [1], the EC (150% of control) is 0.002 µM.

Turning to `Cc1c2n(c3c(-c4ccnc(F)c4)cc(C#N)cc13)CCNC2=O` [Example 168, 6-(2-Fluoro-pyridin-4-yl)-10-methyl-1-oxo-1,2,3,4-tetrahydro-pyrazino[1,2-a]indole-8-carbonitrile], the melting point worked out at 256 °C. In series [1], this molecule had an EC (150% of control) of 0.064 µM.

On to `Cc1c2n(c3c(-c4ccc(F)nc4)cc(C#N)cc13)CCNC2=O` [Example 169, 6-(6-Fluoro-pyridin-3-yl)-10-methyl-1-oxo-1,2,3,4-tetrahydro-pyrazino[1,2-a]indole-8-carbonitrile], for which the melting point is 272 °C. The same molecule registered an EC (150% of control) in series [1] of 0.066 µM.

For the molecule `Cc1c2n(c3c(-c4ccc(OC(F)(F)F)cc4)cc(C#N)cc13)CCNC2=O` [Example 170, 10-Methyl-1-oxo-6-(4-trifluoromethoxy-phenyl)-1,2,3,4-tetrahydro-pyrazino[1,2-a]indole-8-carbonitrile], the melting point was 239 °C. The molecule further came in with an EC (150% of control) in series [1] of 0.014 µM.

For `Cc1c2n(c3c(-c4nccs4)cc(F)cc13)CCNC2=O` [Example 171, 8-Fluoro-10-methyl-6-thiazol-2-yl-3,4-dihydro-2H-pyrazino[1,2-a]indol-1-one], the melting point came out at 268 °C. The molecule also gave an EC (150% of control) in series [1] of 0.36 µM.

`N#Cc1cc(-c2ccc(Cl)c(F)c2)c2c(c1)cc1n2CCNC1=O` [Example 172, 6-(4-Chloro-3-fluoro-phenyl)-1-oxo-1,2,3,4-tetrahydro-pyrazino[1,2-a]indole-8-carbonitrile] displayed a melting point of 309 °C. Moreover, the EC (150% of control) in series [1] came to 0.045 µM.
